The test system of data set [1] is melanin content of cells. As to the kind of experiment: Melanin content assay. The conditions noted are these: for % Inhibition in Melanin Content: 72 hours incubation. In kind it is cell-based. On the procedure: In this Example, cells were grown for 24 hours and treated with bioactives and incubated for 72 hours. Post treatment, the cells were lysed and absorbance measured at 405 nm. The lysate was transferred to a fresh 384-well clear flat bottom plate and an […] was measured at 405 nm using a FlexStation 3 reader. (% reduction in melanin content was measured by taking the mean absorbance value of the control−the mean absorbance value of the treated cells/the mean absorbance value of the control)*100

Data set [2] in a line: Water solubility in sensory oil (solvency of the oil for water). The conditions noted are these: yes/no. In kind it is physicochemical. An excerpt: (§1) A sensory oil can be used in the antibacterial composition to assist in leaving the user with a non-tacky feeling to the skin after application of the composition. The antibacterial composition comprises a sensory oil in an amount of 0.01 to 10% by weight, preferably 0.5 to 5% by weight including all values and ranges subsumed therein. The sensory oil can comprise a soluble sensory oil. Sensory oils desirable for use in the antibacterial composition disclosed herein must meet the following criteria: the sensory oil must be liquid, the sensory oil must be soluble in at least a 75/25 or higher ratio of EtOH/Water which is to be reflective of solubility in the final composition to give a clear final antibacterial composition, and the sensory oil must have no solvency for water.
(§2) The examples are not meant to limit the materials that can be used but merely to illustrate oil type and level selected based on three criteria. […] Finally, the preferred oil must itself not have solvency for water such that during application and on drying as the ethanol and water evaporate, the water is also allowed to quickly evaporate leaving behind only the oil and any skin benefit actives/moisturizers if present.

The nature of data set [3]: Solubility of sensory oil in 75/25 EtOH/Water blend. Format: physicochemical.
From the text: as §1, §2

Data set [4] deals with cells. As to the kind of experiment: Wound healing (scratch closure) assay. In kind it is cell-based. The conditions noted are these: 24 hours after scratch. On the procedure:
In this example, various combinations of benefit agents were tested for resilience wound healing and barrier repair. For wound healing assessments, cells were grown to 80% confluency and treated with bioactives for 24 to 36 hours. Post treatment, a scratch was created on the cell and closure of the wound was monitored after 24 hours of incubation. Closure of the scratch area was calculated as a % closure of the wound. Microscopic images were captured at a magnification of 4× and the open wound area measurements were analyzed using the software CellSens. Wound closure in percentage=(mean of the readings of the open wound area at (t=24)−mean of the readings of the open wound area at (t=0)/mean of the readings at (t=0))*100.

Some results are limits rather than exact numbers.

The term inhibition denotes the share of the control response that was lost under treatment.

Regarding `CCCCCCc1ccc(O)cc1O` [4-Hexyl resorcinol, reference compound], the inhibition at 10 µM in data set [1] (10 micromolar, read-out: % inhibition in melanin content (benchmark)) is roughly 33%.
As for `CCCCC(CC)COC(=O)CC(O)C(=O)OCC(CC)CCCC` (centres unmarked) [Diethyl hexyl malate], the “Water solubility in sensory oil” value in data set [2] is “No”. The “Solubility in 75/25 EtOH/Water” value in data set [3] was greater than 30%.
The like results for `CCCCC(CC)COC(=O)CCCCCCCCC(=O)OCC(CC)CCCC` (centres unmarked) [Diethyl hexyl sebacate] were, in that order, “No” and less than 10%.
The corresponding values for `CCCCC(CC)COC(=O)CCCCC(=O)OCC(CC)CCCC` (centres unmarked) [Diethylhexyl adipate] are “No” and less than 10%.
The like results for `CC(C)OC(=O)CCCCC(=O)OC(C)C` [Disopropyl adipate] were, in that order, “No” and greater than 30%.
As for `CCCCCCCCCCCCOC(=O)C(C)O` (centres unmarked) [Lauryl lactate], in data set [2], the “Water solubility in sensory oil” value is reported as “No”. For the same compound, the “Solubility in 75/25 EtOH/Water” value in data set [3] is reported as greater than 30%.
Regarding `NC(=O)c1cccnc1` [Vitamin B3, niacinamide], in data set [4] (0.2%), the “% Closure in Scratch Area” value is reported as 30%. For the same compound, the “% Inhibition in Melanin Content” value in data set [1] (0.2%) was 7.47%.
For the compound Dicapryl maleate, the “Water solubility in sensory oil” value in data set [2] is on record as “No”. In addition, the “Solubility in 75/25 EtOH/Water” value in data set [3] was less than 10%.
For Glyceryl Monoleate, in data set [2], the “Water solubility in sensory oil” value is listed as “yes”. For the same compound, the “Solubility in 75/25 EtOH/Water” value in data set [3] is recorded as greater than 30%.
The corresponding values for Isocetyl alcohol are “No” and less than 10%.
The corresponding values for PPG-2 Isoceteth-20 Acetate are “no” and greater than 30%.
The corresponding values for PPG-2-Isoceteth-2 are “Yes” and greater than 30%.
On to Sodium Hyaluronate, for which, in data set [4] (0.001%), the “% Closure in Scratch Area” value is 51%. Besides, the “% Inhibition in Melanin Content” value in data set [1] (0.001%) is recorded as 9.09%.
tocopherol [Vitamin E]: the “% Closure in Scratch Area” value in data set [4] (0.001%) is on record as 32%; in data set [4] (0.05%), 48%. Further, the “% Inhibition in Melanin Content” value in data set [1] (0.001%) came to 3.56%; in data set [1] (0.05%) it was 15.62%.

The values above are taken from US20230301883A1, “MOISTURIZING ANTIBACTERIAL COMPOSITION” (priority 2020, published 2023).
